In US20200299777A1, “Methods for Resensitizing p53-Null Cells to Cancer Chemotherapy” (UNIVERSITY OF SOUTH CAROLINA, priority 2019, published 2020):

What was measured:
[1] = tested on: TP53-WT hESCs; experiment: Cell viability assay (resazurin), TP53 wild-type human ES cells; format: cell-based; details: for sensitivity of TP53-WT hESCs (cell viability): all tested concentrations
Experimental: (§1) Human H9 embryonic stem cells (ESCs) (Lot No.: WIC-WA09-MB-001, WiCell, Wisconsin) and derivatives were maintained at 37° C., 5% CO2 in chemical-defined medium TeSR-E8 medium (Stemcell Tech.) with 100 U/ml penicillin & 100 μg/ml streptomycin (Gibco) on Matrigel-coated (# CB40230A, Corning) tissue culture vessels. Authentication of H9 ESCs were performed by WiCell. ESCs were passaged every 4 to 6 days to maintain sub-confluence using 0.5 mM EDTA as described previously. Human colon cancer RKO cells (kindly given by Dr. Bert Vogelstein) and its derivatives were maintained at 37° C., 5% CO2 in McCoy's 5A media (Fisher) supplemented with 10% FBS and 100 U/ml penicillin & 100 μg/ml streptomycin (Gibco). RKO cells were passaged every 3 to 4 days to maintain sub-confluence (authentication of RKO cell line was performed by JHU-GRCF Biorepository & Cell Center). Cells were screened for mycoplasma before experiments using a MycoAlert™ Mycoplasma Detection Kit (Lonza).
(§2) NCI Approved Oncology Drug Set IV containing 127 FDA-approved anticancer drugs was obtained from the NCI under a material transfer agreement. TP53 knockout or wild-type human ES cells were seeded in 96-well microplates in E8 medium, with 6,000 cells per well that would reach about 85% confluent at the end of the assay. Human ES cells were plated one day before treatment with a 7-point two-fold dilution series (starting with 10 μM) of each compound or solvent (dimethyl sulfoxide, DMSO or Dimethylformamide, DMF) control. After 72 hours incubation, cells were stained with 35 μM resazurin (Sigma), then quantification of fluorescent signal intensity was performed on Thermo Fluorskan™ Ascent plate reader at excitation and emission wavelengths of 544/590 nm. Data were normalized to the solvent control (DMSO or DMF) group. The area under a curve (AUC) was calculated using auc function (flux package) in R. The two-side t-test was performed with tlest function in R. The hierarchical clustering analysis of drugs AUC pattern in different samples was carried out using heatmap.2 function (gplots package) in R (All R code available). Viability response curves of Cisplatin and Paclitaxel on TP53-KO hESCs or RKO cells were generated using drc package (Analysis of Dose-Response Curves) in R.

[2] = tested on: TP53-KO hESCs; experiment: Cell viability assay (resazurin), TP53 knockout human ES cells; format: cell-based; details: for sensitivity/resistance of TP53-KO hESCs (cell viability): 7-point two-fold dilution starting with 10 μM
Experimental: as §1
TP53 knockout hESCs and RKO cells were generated using CRISPR/Cas9 as described previously with minor modifications. Briefly, human codon-optimized Streptococcus pyogenes wild type Cas9 (Cas9-2A-GFP) was obtained from Addgene (#44719). Chimeric guide RNA expression cassettes with different small guide RNA, TP53_Up_sgRNA: 5′-[…]-3′ (SEQ ID NO: 1) and TP53_Down_sgRNA: 5′-[…]-3′ (SEQ ID NO: 2) were ordered as gBlock. These gBlocks were amplified by PCR using primers: gBlock_Amplifying_F: 5′-[…]-3′ (SEQ ID NO: 3) and gBlock_Amplifying_R: 5′-[…]-3′ (SEQ ID NO: 4). The PCR product was purified by Agencourt Ampure XP PCR Purification beads according to manufacturer's protocol (Beckman Coulter). 1.5 μg of Cas9 plasmid and 0.5 μg of each gRNAgBlock were co-transfected into hESCs via Lipofectamine™ 3000 (Thermo Fisher Scientific). […] For TP53-KO RKO cells, single clones were picked up and validated by PCR and Western blotting.
as §2

[3] = tested on: TP53-KO RKO cells; experiment: Cisplatin viability response on TP53 knockout RKO colon cancer cells; format: cell-based, human
Experimental: as §1, with “RKO cells were passaged every 3 to 4 days to maintain sub-confluence (authentication of RKO cell line was performed by JHU-GRCF Biorepository & Cell Center). Cells were screened for mycoplasma before experiments using a MycoAlert™ Mycoplasma Detection Kit (Lonza).” left out
NCI Approved Oncology Drug Set IV containing 127 FDA-approved anticancer drugs was obtained from the NCI under a material transfer agreement. […] After 72 hours incubation, cells were stained with 35 μM resazurin (Sigma), then quantification of fluorescent signal intensity was performed on Thermo Fluorskan™ Ascent plate reader at excitation and emission wavelengths of 544/590 nm. […] The area under a curve (AUC) was calculated using auc function (flux package) in R. The two-side t-test was performed with tlest function in R. The hierarchical clustering analysis of drugs AUC pattern in different samples was carried out using heatmap.2 function (gplots package) in R (All R code available). […]

[4] = tested on: TP53-KO hESCs; experiment: Paclitaxel and Cisplatin drug synergy experiment on TP53-KO hESCs; format: cell-based, human; details: low concentration Paclitaxel plus Cisplatin matrix, 72 hours, ZIP synergy model
Experimental: (§3) A Paclitaxel and Cisplatin drug matrix (12×8) in a 96-well plate was made for drug synergy experiment. Paclitaxel on row was an 11-point two-fold dilution series with starting concentration of 0.0016 μM, and Cisplatin on column was a 7-point two-fold dilution series with starting concentration of 2 μM, 5000 TP53-KO hESCs per well or 2000 TP53-KO RKO cells per well were plated on three 96-well plates one day before treatment with Paclitaxel and Cisplatin drug matrix. After 72 hours incubation for TP53-KO hESCs and 96 hours incubation for TP53-KO RKO cells, cells were stained with 35 μM resazurin (Sigma), then quantification of fluorescent signal intensity was performed on Thermo Fluorskan™ Ascent plate reader at excitation and emission wavelengths of 544/590 nm. The drug synergy scores were evaluated using ZIP model (Zero Interaction Potency model) in synergyfinder package.

[5] = tested on: TP53-KO RKO cells; experiment: Paclitaxel and Cisplatin drug synergy experiment on TP53-KO RKO cells; format: cell-based, human; details: Paclitaxel plus Cisplatin matrix, 96 hours, two TP53-KO clones, ZIP synergy model
Experimental: as §3

[6] = tested on: ZNF207/BuGZ knockout TP53-KO hESCs; experiment: Validation of ZNF207/BuGZ knockout in Cas9-expressing TP53-KO hESCs treated with Cisplatin (qPCR of knockout locus); format: cell-based, human
Experimental: Human TP53 knockout embryonic stem cells were infected at low MOI by viruses produced using pCLIP-Cas9-Nuclease-EFS-Blast (TransOMIC) and selected using blastcidin (10 μg/ml). The stable Cas9-expressing TP53-KO hESCs were infected with viruses with two sgRNAs against gene ZNF207/BuGZ (# TEDH-1090944, TransOMIC) or control gene OR1C1 (# TEDH-1055091, TransOMIC). These two sgRNAs could induce fragment deletion. We treated these cells with either 200 nM Cisplatin or vehicle DMF. We used realtime quantitative PCR to quantify the ZNF207 knockout locus, using gRNA flanking primers that only amplify when the intervening sequence has been deleted.
The relative percentage of ZNF207 or OR1C1 knockout cell number was defined as:
2^−ΔCT(Gene−LINE)/2^−ΔCT(Gene−LINE) at Day0.

[7] = tested on: TP53-WT hESCs; experiment: Cell viability assay (resazurin), TP53 wild-type human ES cells; format: cell-based; details: 200 nM
[8] = 72 hours, resazurin, low concentrations

| SMILES | sensitivity of TP53-WT hESCs (cell viability) ([1]; 72 hours, resazurin) | sensitivity/resistance of TP53-KO hESCs (cell viability) ([2]; 72 hours, resazurin) | sensitivity of TP53-WT hESCs at low concentration (cell viability) ([1]; 72 hours, resazurin) | also measured |
| --- | --- | --- | --- | --- |
| CC(=O)O[C@@]12CO[C@@H]1C[C@H](O)[C@@]1(C)C(=O)[C@H](O)C3=C(C)[C@@H](OC(=O)[C@H](O)[C@@H](NC(=O)OC(C)(C)C)c4ccccc4)C[C@@](O)([C@@H](OC(=O)c4ccccc4)[C@H]21)C3(C)C [Docetaxel] | sensitive | sensitive |  |  |
| COc1ccc(C2=N[C@@H](c3ccc(Cl)cc3)[C@@H](c3ccc(Cl)cc3)N2C(=O)N2CCNC(=O)C2)c(OC(C)C)c1 [Nutlin-3a] |  |  |  | growth inhibitory effect on TP53-WT hESCs ([1]; very low concentrations): severely growth arrested |
| N.N.O=C([O-])C1(C(=O)[O-])CCC1.[Pt+2] [Carboplatin] |  | resistant | very sensitive |  |
| CC(=O)O[C@H]1C(=O)[C@@]2(C)[C@H]([C@H](OC(=O)c3ccccc3)[C@]3(O)C[C@H](OC(=O)[C@H](O)[C@@H](NC(=O)c4ccccc4)c4ccccc4)C(C)=C1C3(C)C)[C@]1(OC(C)=O)CO[C@@H]1C[C@@H]2O [Paclitaxel] | sensitive | sensitive |  |  |
| O=C(c1cc(Cc2n[nH]c(=O)c3ccccc23)ccc1F)N1CCN(C(=O)C2CC2)CC1 [Olaparib] |  | resistant | very sensitive |  |
| CCc1c2c(nc3ccc(OC(=O)N4CCC(N5CCCCC5)CC4)cc13)-c1cc3c(c(=O)n1C2)COC(=O)[C@]3(O)CC [Irinotecan] |  | resistant |  | sensitivity of TP53-WT hESCs at low concentration (0.16 μM) ([1]; 72 hours, resazurin): very sensitive |
| N.N.[Cl][Pt][Cl] [Cisplatin] |  | resistant | very sensitive | resistance of TP53-KO hESCs at the optimal concentration ([2]; 200 nM): very resistant; resistance of TP53-KO RKO cells compared to TP53-WT RKO cells [3]: resistant; inhibition of Cisplatin on TP53-KO hESCs in combination with Paclitaxel [4]: increased; inhibition of Cisplatin on TP53-KO RKO cells in combination with Paclitaxel [5]: increased greatly; sensitivity of ZNF207/BuGZ knockout TP53-KO hESCs ([6]; 200 nM vs vehicle DMF, two more TP53-KO hESC lines): more sensitive; depletion of ZNF207/BuGZ knockout cells versus DMF vehicle control ([6]; 200 nM, ten days, qPCR at day 6 and 10): depleted faster; sensitivity of TP53-WT hESCs at the optimal concentration [7]: very sensitive |
| O=C1[O][Pt]2([NH][C@@H]3CCCC[C@H]3[NH]2)[O]C1=O [Oxaliplatin] |  | resistant |  | sensitivity of TP53-WT hESCs at low concentration (0.16 μM) ([1]; 72 hours, resazurin): very sensitive |
| O=c1[nH]cc(F)c(=O)[nH]1 [Fluorouracil] |  |  |  | sensitivity of TP53-WT hESCs at high concentrations ([1]; 72 hours, resazurin, high concentrations): sensitive; resistance of TP53-WT hESCs at low concentrations [1, 8]: resistant; resistance of TP53-KO hESCs at low concentrations [2, 8]: resistant |
| CCCCCOC(=O)Nc1nc(=O)n([C@@H]2O[C@H](C)[C@@H](O)[C@H]2O)cc1F [Capecitabine] | resistant | resistant |  |  |
